Measured values: patent US20050222122A1, “Statin therapy for enhancing cognitive maintenance” (priority 2002, published 2005)

Tests used:
[1] = system: patients with Alzheimer's disease; test: Change in ADAS-cog/11 in combined double-blind, placebo-controlled galantamine clinical trials (5 to 6 months); format: in vivo, human; details: combined trial data, galantamine 24 mg daily, controls for study and AD severity
Experimental: The objective was to evaluate the effect of statins on cognitive maintenance in patients with Alzheimer's disease during 5- and 6-month randomized clinical trials of galantamine.
Data were combined from 3 double-blind, placebo-controlled clinical trials limited to patients treated with galantamine 24 mg daily or placebo
Patients were categorized based on galantamine status and any statin use.
Changes in the Alzheimer's Disease Assessment Scale-cognitive subscale with standard 11 items (ADAS-cog/11) using last observation carried forward (LOCF) were assessed
Comparisons between patient subgroups were made controlling for relevant confounding factors.

serum β-amyloid = details: patients with high low-density lipoprotein cholesterol; lovastatin 40 or 60 mg; cited from earlier work

Compound	ADAS-Cog change score, LS Means (SE) ([1]; Intent-to-treat analysis (LOCF))	ADAS-Cog change score, LS Means (SE) ([1]; Intent-to-treat analysis (LOCF), listed as GAL-only)	ADAS-Cog change score, LS Means (SE) ([1]; Observed cases)	serum β-amyloid (serum β-amyloid)
COc1ccc2c3c1O[C@H]1C[C@@H](O)C=C[C@@]31CCN(C)C2 [GAL 24 only, (4aS,6R,8aS)-4a, 5,9,10,11,12-hexahydro-3-methoxy-1 1-methyl-6H-benzofuro[3a,3,2-ef][2]benzazepin-6-ol]	−0.88 (0.25)	−0.88	−0.61 (0.28)	–
CC[C@H](C)C(=O)O[C@H]1C[C@@H](C)C=C2C=C[C@H](C)[C@H](CC[C@@H]3C[C@@H](O)CC(=O)O3)[C@H]21 [lovastatin]	–	–	–	decreased serum β-amyloid
